Tested on: glial progenitor cells derived from human ES cells (Olig2 positive cells)
Experiment: hOPC differentiation assay, Olig2 positive cells (immunostaining, high content screening)
Assay type: cell-based
Settings: PDGF 20 ng/ml added during LDN-193189 dose-response assay, 21 days
Procedure: In order to initiate differentiation 20,000 GPCs were seeded in each well of Matrigel coated plates of 96 wells, or on PolyD-Lysine/laminin (PDL/lam)-coated 96 well plates. Cells were grown in GM media for two to three days. Then GM was replaced by differentiation medium without growth factors, (DMEM/F12, 1% B27, 0.5% N2, Vitamin C (Sigma, 50 ug/ml). Differentiation medium was supplemented with the following tested compounds: […] All media were replaced every other day. The oligodendrocyte lineage cells were characterized by the expression of a transcription factor olig2. The rabbit polyclonal AB anti olig2 (Millipore cat AB9610) was added to PFA fixed cells. […] The fixed cells were washed three times in blocking solution, olig2 diluted 1/500, in blocking solution, was added for 1 hour. The fixed cells were washed with PBS 3 times and goat anti rabbit Alexa Fluor 568 1/500 in PBS was added for 45 minutes. The fixed cells were washed three times. ArrayScan VTI HCS reader system (Cellomis, Thermo-scientific) was used for scanning at least 20 fields for each tested well under 10× objective in both assays (differentiation and myelination). Cellomics Neural profiling bio-application was used for processing and analyzing the images. For differentiation assay, the following parameters were tested: number and percentage of O4+ cells, number of processes, processes length and number of branching points. For myelination assay, the same morphological parameters were tested and in addition: areas of myelinated axons in pixels (MBP&NF overlap area) and Number of myelinated regions (MBP&NF overlap count) were also analyzed. Modifications in the Neuro-profiling bio-application were conducted for this specific purpose. T-test analysis was used to compare between treatments. The 4-parameter Hill-Slope curve fittings were generated by GraphPad Prism software using least squares fitting method and EC50 values were calculated. […] The cells at passage five were cultured for three days with GM on 96 well plates and after fixation, cells were reacted with anti-olig2 Ab, and olig2 positive cells and nuclei were scanned in the Thermo Scientific™ ArrayScan™ XTI High Content Analysis (HCA) Reader and counted with the neural profiling program. On the other hand the cells surface antigens O4 and PDGFRa were detected on dissociated cells after fixation and reaction with O4 Ab conjugated to APC, anti PDGFRa PE, as well as A2B5 PE all obtained from BD. Flow cytometry was conducted in BD FACS Canto II. […] Time points used for analysis are 21, 28, 35 and 42 days of differentiation, for each time point 20 fields were analyzed. […] In this experiment, cells at passage 4 were pretreated in differentiation medium with Noggin for 14 days, and split before seeding on 96 well plates.

PDGF: human recombinant PDGFAA (R&D)
number of olig2 positive cells on addition of PDGF: increases the number of olig2 positive cells about two folds

Source: patent US20170095512A1, “METHODS OF INDUCING MYELINATION AND MATURATION OF OLIGODENDROCYTES” (KADIMASTEM LTD., priority 2014, published 2017)
